Data published in ChEMBL document CHEMBL1201862, “PubChem BioAssay data set” (2004).
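96-well plates; 48 h exposure; 5 concentrations. Endpoints by linear interpolation between flanking doses. Not reached: highest tested concentration assigned. GI50 = concentration required for 50% inhibition of growth.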 The source made the active and inactive calls. Rule as the data show it: active = GI50 up to about 1.1 µM and inactive = higher.

Experiments:
Assay in all cases: DTP human tumour cell line panel, 48 h
OVCAR-8 = tested on: OVCAR-8
KM12 = tested on: KM12
COLO 205 = tested on: COLO 205
CCRF-CEM = tested on: CCRF-CEM
SW-620 = tested on: SW-620
SNB-19 = tested on: SNB-19
SK-MEL-2 = tested on: SK-MEL-2
SK-OV-3 = tested on: SK-OV-3
LOX IMVI = tested on: LOX IMVI
SK-MEL-28 = tested on: SK-MEL-28
OVCAR-5 = tested on: OVCAR-5
HOP-62 = tested on: HOP-62
MOLT-4 = tested on: MOLT-4
RPMI-8226 = tested on: RPMI-8226
RXF 393 = tested on: RXF 393
HCC 2998 = tested on: HCC 2998

SMILES	GI50 (OVCAR-8)	GI50 (KM12)	GI50 (COLO 205)	GI50 (CCRF-CEM)	GI50 (SW-620)	GI50 (SNB-19)	GI50 (SK-MEL-2)	GI50 (SK-OV-3)	GI50 (LOX IMVI)	GI50 (SK-MEL-28)	GI50 (OVCAR-5)	GI50 (HOP-62)	GI50 (MOLT-4)	GI50 (RPMI-8226)	GI50 (RXF 393)	GI50 (HCC 2998)
CCCCCC/C=C/CCCCCCCc1cccc(O)c1C(=O)O	50.8 µM (inactive)	> 100 µM (inactive)	> 100 µM (inactive)	39.5 µM (inactive)	62.4 µM (inactive)	34.7 µM (inactive)	> 100 µM (inactive)	36.3 µM (inactive)	70.6 µM (inactive)	83 µM (inactive)	> 100 µM (inactive)	33.6 µM (inactive)	48.5 µM (inactive)	54.2 µM (inactive)	–	–
O=c1cc2n(c(=O)[nH]1)C1OC(C(O)C1O)[C@@H]2CCO (stereo partly drawn)	> 100 µM (inactive)	> 100 µM (inactive)	–	> 100 µM (inactive)	> 100 µM (inactive)	> 100 µM (inactive)	> 100 µM (inactive)	> 100 µM (inactive)	> 100 µM (inactive)	> 100 µM (inactive)	> 100 µM (inactive)	> 100 µM (inactive)	> 100 µM (inactive)	–	> 100 µM (inactive)	–
CCSC1=C(C)N(/C=N/C(C)(C)C)CC1	> 100 µM (inactive)	> 100 µM (inactive)	> 100 µM (inactive)	> 100 µM (inactive)	20.5 µM (inactive)	> 100 µM (inactive)	> 100 µM (inactive)	> 100 µM (inactive)	89.1 µM (inactive)	> 100 µM (inactive)	> 100 µM (inactive)	> 100 µM (inactive)	> 100 µM (inactive)	–	> 100 µM (inactive)	> 100 µM (inactive)
COC1=C(OC)C(=O)c2cc(SC)c(=O)c(SC)cc2C1=O	12.1 µM (inactive)	96.4 µM (inactive)	> 100 µM (inactive)	2.34 µM (inactive)	33.5 µM (inactive)	22.6 µM (inactive)	3.85 µM (inactive)	36.4 µM (inactive)	4.48 µM (inactive)	13.5 µM (inactive)	–	15 µM (inactive)	3.79 µM (inactive)	15.2 µM (inactive)	4.9 µM (inactive)	> 100 µM (inactive)
O=C(COC(=O)c1cccc2c(=O)c3ccccc3[nH]c12)Nc1ccc(C(=O)O)cc1	78.7 µM (inactive)	47.2 µM (inactive)	> 100 µM (inactive)	69.5 µM (inactive)	> 100 µM (inactive)	> 100 µM (inactive)	–	> 100 µM (inactive)	> 10 µM (inactive)	> 100 µM (inactive)	–	> 100 µM (inactive)	37.8 µM (inactive)	–	46.8 µM (inactive)	> 100 µM (inactive)
CN(C)CC/C(=N\Nc1ccc([N+](=O)[O-])cc1)c1ccccc1	14 µM (inactive)	9.31 µM (inactive)	14.9 µM (inactive)	7.23 µM (inactive)	13.4 µM (inactive)	15 µM (inactive)	12.9 µM (inactive)	16.1 µM (inactive)	5.25 µM (inactive)	12.7 µM (inactive)	15 µM (inactive)	14.2 µM (inactive)	7.43 µM (inactive)	11 µM (inactive)	4.5 µM (inactive)	–
N#CC(NNC(=O)c1ccccc1O)c1ccccc1 (stereo not drawn)	2.81 µM (inactive)	1.61 µM (inactive)	33.7 µM (inactive)	0.855 µM (active)	8.02 µM (inactive)	–	2.55 µM (inactive)	3.62 µM (inactive)	2.9 µM (inactive)	> 100 µM (inactive)	22.1 µM (inactive)	5.89 µM (inactive)	2.15 µM (inactive)	6.32 µM (inactive)	1.03 µM (active)	–
N#Cc1c2c(c(N=P(c3ccccc3)(c3ccccc3)c3ccccc3)n3c1nc1ccccc13)CCCC2	13 µM (inactive)	17.4 µM (inactive)	11.5 µM (inactive)	16.7 µM (inactive)	20.8 µM (inactive)	11.9 µM (inactive)	16.6 µM (inactive)	40.9 µM (inactive)	16.7 µM (inactive)	43.7 µM (inactive)	–	19 µM (inactive)	19.6 µM (inactive)	14.8 µM (inactive)	46.2 µM (inactive)	26.3 µM (inactive)
O=C(/C=C/c1ccccc1)NC1C=Nc2ccc(Cl)cc2NC1=O (stereo not drawn)	29.5 µM (inactive)	22.2 µM (inactive)	17.1 µM (inactive)	3.52 µM (inactive)	7.13 µM (inactive)	29.1 µM (inactive)	30.5 µM (inactive)	25.1 µM (inactive)	18.8 µM (inactive)	37.9 µM (inactive)	44.5 µM (inactive)	47.9 µM (inactive)	4.54 µM (inactive)	–	16.2 µM (inactive)	21.2 µM (inactive)
CCCc1c(C(=O)OCC)[nH]c(-c2ccc(-c3[nH]c(C(=O)OCC)c(CCC)c3C(=O)OCC)s2)c1C(=O)OCC	48 µM (inactive)	22.1 µM (inactive)	> 100 µM (inactive)	> 100 µM (inactive)	> 100 µM (inactive)	78.3 µM (inactive)	15.7 µM (inactive)	27.1 µM (inactive)	18.1 µM (inactive)	95.5 µM (inactive)	86.3 µM (inactive)	–	65 µM (inactive)	87.7 µM (inactive)	5.38 µM (inactive)	20.6 µM (inactive)
On1c(-c2ccccc2)c(-c2c(-c3ccccc3)n(O)c3ccccc23)c2ccccc21	26.1 µM (inactive)	30.8 µM (inactive)	–	34.3 µM (inactive)	–	67.5 µM (inactive)	25.8 µM (inactive)	29.8 µM (inactive)	26.2 µM (inactive)	61.9 µM (inactive)	–	–	37.7 µM (inactive)	–	20.9 µM (inactive)	–
O=C(Nc1ccccc1)N1C(c2ccccc2)=N[C@@H](c2ccccc2)[C@@H]1c1ccccc1	22.8 µM (inactive)	18.3 µM (inactive)	14.6 µM (inactive)	22.6 µM (inactive)	18.8 µM (inactive)	31.6 µM (inactive)	–	–	14.6 µM (inactive)	15.6 µM (inactive)	19.3 µM (inactive)	20.6 µM (inactive)	19.1 µM (inactive)	22.5 µM (inactive)	15.2 µM (inactive)	18.5 µM (inactive)
CC1=N/C(=C\c2ccc([N+](=O)[O-])cc2)C(=O)O1	> 100 µM (inactive)	> 100 µM (inactive)	> 100 µM (inactive)	–	> 100 µM (inactive)	> 100 µM (inactive)	> 100 µM (inactive)	–	–	> 100 µM (inactive)	> 100 µM (inactive)	> 100 µM (inactive)	> 100 µM (inactive)	> 100 µM (inactive)	> 100 µM (inactive)	> 100 µM (inactive)
COC(=O)C1CC2(CC3=C1CCCC3)OCCO2 (stereo not drawn)	> 100 µM (inactive)	> 100 µM (inactive)	> 100 µM (inactive)	> 100 µM (inactive)	> 100 µM (inactive)	> 100 µM (inactive)	> 100 µM (inactive)	> 100 µM (inactive)	> 100 µM (inactive)	> 100 µM (inactive)	–	> 100 µM (inactive)	–	> 100 µM (inactive)	> 100 µM (inactive)	> 100 µM (inactive)
C[C@]12CC[C@H](O)CC1=CC[C@@H]1C2CC[C@]2(C)Nc3c(cnn3-c3ccccc3)CC12 (stereo partly drawn)	6.87 µM (inactive)	2.05 µM (inactive)	–	3.01 µM (inactive)	2.6 µM (inactive)	–	9.73 µM (inactive)	4.07 µM (inactive)	–	2.86 µM (inactive)	3.96 µM (inactive)	2.81 µM (inactive)	1.5 µM (inactive)	0.361 µM (active)	0.441 µM (active)	3.56 µM (inactive)
CCOC(=O)NC(=O)c1cn(CCN2CCN(C(=O)CCCCCCCCCCC(=O)N3CCN(CCn4cc(C(=O)NC(=O)OCC)c(=O)[nH]c4=O)CC3)CC2)c(=O)[nH]c1=O	> 100 µM (inactive)	> 100 µM (inactive)	> 100 µM (inactive)	> 100 µM (inactive)	> 100 µM (inactive)	> 100 µM (inactive)	–	> 100 µM (inactive)	29.3 µM (inactive)	> 100 µM (inactive)	51.6 µM (inactive)	> 100 µM (inactive)	> 100 µM (inactive)	> 100 µM (inactive)	–	> 100 µM (inactive)
CCOC(=O)c1ccc(N2C(=O)/C(=C\OC)c3ccccc3C2=O)cc1	20 µM (inactive)	42.6 µM (inactive)	94.4 µM (inactive)	–	33.8 µM (inactive)	34 µM (inactive)	23 µM (inactive)	5.22 µM (inactive)	–	24.7 µM (inactive)	43.1 µM (inactive)	–	25.5 µM (inactive)	27.8 µM (inactive)	11.2 µM (inactive)	46.2 µM (inactive)
O[C@]12c3ccccc3C1CCCCC2N1CCOCC1 (stereo partly drawn)	> 100 µM (inactive)	> 100 µM (inactive)	> 100 µM (inactive)	> 100 µM (inactive)	> 100 µM (inactive)	> 100 µM (inactive)	> 100 µM (inactive)	> 100 µM (inactive)	> 100 µM (inactive)	> 100 µM (inactive)	–	> 100 µM (inactive)	> 10 µM (inactive)	> 100 µM (inactive)	> 100 µM (inactive)	–
CC(C)(C)CC(C)(C)c1cc2c(O)c(c1)Cc1cc(C(C)(C)CC(C)(C)C)cc(c1O)Cc1cc(C(C)(C)CC(C)(C)C)cc(c1O)Cc1cc(C(C)(C)CC(C)(C)C)cc(c1O)Cc1cc(C(C)(C)CC(C)(C)C)cc(c1O)Cc1cc(C(C)(C)CC(C)(C)C)cc(c1O)C2	> 100 µM (inactive)	> 100 µM (inactive)	> 100 µM (inactive)	> 100 µM (inactive)	> 100 µM (inactive)	> 100 µM (inactive)	> 100 µM (inactive)	–	–	> 100 µM (inactive)	> 100 µM (inactive)	> 100 µM (inactive)	> 100 µM (inactive)	> 100 µM (inactive)	> 100 µM (inactive)	> 100 µM (inactive)
